Experimental data taken from ChEMBL document CHEMBL1201862, “PubChem BioAssay data set” (2004).
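Method: 48-hour compound exposure of cells in 96-well plates, five concentrations, linear interpolation of endpoints. Here, GI50 denotes the concentration required for 50% inhibition of growth.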 Activity calls are given as the source filed them. No stated cut-off is given here; in the data, active = GI50 up to about 1.1 µM and inactive = higher.

Tests used:
Test in all cases: NCI anticancer screen, dose series, 48 h
SK-MEL-5 = tested on: SK-MEL-5
A498 = tested on: A498
HOP-92 = tested on: HOP-92
OVCAR-5 = tested on: OVCAR-5
UACC-62 = tested on: UACC-62
EKVX = tested on: EKVX
IGROV-1 = tested on: IGROV-1
SN12C = tested on: SN12C
HCT-15 = tested on: HCT-15
OVCAR-3 = tested on: OVCAR-3
RXF 393 = tested on: RXF 393
CAKI-1 = tested on: CAKI-1
SK-MEL-2 = tested on: SK-MEL-2
NCI-H522 = tested on: NCI-H522
MCF7 = tested on: MCF7
HCT-116 = tested on: HCT-116
OVCAR-8 = tested on: OVCAR-8
SNB-75 = tested on: SNB-75
OVCAR-4 = tested on: OVCAR-4
HOP-62 = tested on: HOP-62

SMILES | GI50 (SK-MEL-5) | GI50 (A498) | GI50 (HOP-92) | GI50 (OVCAR-5) | GI50 (UACC-62) | GI50 (EKVX) | GI50 (IGROV-1) | GI50 (SN12C) | GI50 (HCT-15) | GI50 (OVCAR-3) | GI50 (RXF 393) | GI50 (CAKI-1) | GI50 (SK-MEL-2) | GI50 (NCI-H522) | GI50 (MCF7) | GI50 (HCT-116) | GI50 (OVCAR-8) | GI50 (SNB-75) | GI50 (OVCAR-4) | GI50 (HOP-62)
CC1=NN(C(=O)c2ccccc2O)C(=O)/C1=C/c1ccc(O)cc1 | 0.301 µM (active) | 0.134 µM (active) | 0.218 µM (active) | 7.96 µM (inactive) | 0.34 µM (active) | 1.81 µM (inactive) | 0.14 µM (active) | 1.62 µM (inactive) | 0.485 µM | 0.278 µM (active) | 0.0601 µM (active) | 0.662 µM (active) | 2.13 µM (inactive) | 0.807 µM (active) | 0.382 µM (active) | 0.209 µM (active) | 0.358 µM (active) | 0.23 µM (active) | 1.48 µM (inactive) | 0.662 µM (active)
C/C(=N\NC(=O)c1ccncc1)c1sc(-n2nc(-c3ccccc3)cc2-c2ccccc2)nc1C | > 31.6 µM (inactive) | > 100 µM (inactive) | > 31.6 µM (inactive) | > 31.6 µM (inactive) | > 31.6 µM (inactive) | 47.8 µM (inactive) | > 33.7 µM (inactive) | > 100 µM (inactive) | > 31.6 µM | 25.1 µM (inactive) | > 31.6 µM (inactive) | 98.4 µM (inactive) | > 31.6 µM (inactive) | > 35.7 µM (inactive) | > 31.6 µM (inactive) | > 31.6 µM (inactive) | > 100 µM (inactive) | > 37.2 µM (inactive) | > 31.6 µM (inactive) | > 31.6 µM (inactive)
CNC(=O)C(C)C1CCC2(C)C=CC(=O)C(C)=C2C1O (stereo not given) | > 39.6 µM (inactive) | > 100 µM (inactive) | > 100 µM (inactive) | > 100 µM (inactive) | > 100 µM (inactive) | > 100 µM (inactive) | > 55.2 µM (inactive) | > 100 µM (inactive) | > 100 µM | > 100 µM (inactive) | > 100 µM (inactive) | 28.5 µM (inactive) | > 100 µM (inactive) | > 100 µM (inactive) | > 100 µM (inactive) | > 100 µM (inactive) | > 49.4 µM (inactive) | > 100 µM (inactive) | > 100 µM (inactive) | > 100 µM (inactive)
O=C(CC1=NCCN1)c1ccccc1 | > 750 µM (inactive) | 62.8 µM (inactive) | > 319 µM (inactive) | > 750 µM (inactive) | > 750 µM (inactive) | > 750 µM (inactive) | > 750 µM (inactive) | > 750 µM (inactive) | > 750 µM | > 750 µM (inactive) | > 750 µM (inactive) | > 750 µM (inactive) | > 750 µM (inactive) | > 750 µM (inactive) | > 750 µM (inactive) | > 750 µM (inactive) | > 750 µM (inactive) | > 735 µM (inactive) | > 750 µM (inactive) | > 605 µM (inactive)
CN(C)CN1C(=O)/C(=N\n2c(S)nnc2-c2ccncc2)c2ccccc21 | 39.4 µM (inactive) | > 100 µM (inactive) | 76.9 µM (inactive) | > 100 µM (inactive) | 42.4 µM (inactive) | > 100 µM (inactive) | 38.5 µM (inactive) | 35.2 µM (inactive) | 28.1 µM | 66.5 µM (inactive) | 17 µM (inactive) | 69.3 µM (inactive) | 21.4 µM (inactive) | 16.6 µM (inactive) | 31.3 µM (inactive) | 34 µM (inactive) | 23.7 µM (inactive) | 38.5 µM (inactive) | 17.1 µM (inactive) | 24.8 µM (inactive)
Fc1cccc(C2ON=C(c3ccccc3)N2C23CC4CC(CC(C4)C2)C3)c1 (stereo not given) | > 10 µM (inactive) | > 10 µM (inactive) | > 10 µM (inactive) | > 10 µM (inactive) | > 10 µM (inactive) | > 10 µM (inactive) | > 10 µM (inactive) | > 10 µM (inactive) | > 10 µM | > 10 µM (inactive) | > 10 µM (inactive) | > 10 µM (inactive) | > 10 µM (inactive) | > 10 µM (inactive) | > 10 µM (inactive) | > 10 µM (inactive) | > 10 µM (inactive) | > 10 µM (inactive) | > 10 µM (inactive) | > 10 µM (inactive)
COc1ccc(C(=O)/C=C/S/C(=N/C#N)SC)cc1 | 21.8 µM (inactive) | 24.5 µM (inactive) | 65.5 µM (inactive) | 24 µM (inactive) | 20 µM (inactive) | 35.3 µM (inactive) | 21.8 µM (inactive) | 24.4 µM (inactive) | 13.8 µM | 16.4 µM (inactive) | 18.2 µM (inactive) | 22.9 µM (inactive) | 20.5 µM (inactive) | 18.2 µM (inactive) | 18.4 µM (inactive) | 14.9 µM (inactive) | 21 µM (inactive) | 27.9 µM (inactive) | 58.9 µM (inactive) | 24.3 µM (inactive)
COc1cccc(C(=O)C#Cc2cnc(OC)nc2OC)c1 | 1.24 µM (inactive) | 8.69 µM (inactive) | 2.09 µM (inactive) | 2.91 µM (inactive) | 1.36 µM (inactive) | 1.72 µM (inactive) | 0.653 µM (active) | 0.753 µM (active) | 0.2 µM | 1.81 µM (inactive) | 0.331 µM (active) | 1.99 µM (inactive) | 1.8 µM (inactive) | 0.226 µM (active) | 0.126 µM (active) | 3.18 µM (inactive) | 1.7 µM (inactive) | 2.26 µM (inactive) | 2.36 µM (inactive) | 13.5 µM (inactive)
CCCCNC(=O)OCCN=C1c2ccccc2C(Br)C(Br)c2ccccc21 (stereo not given) | 18.7 µM (inactive) | 41.5 µM (inactive) | 4.46 µM (inactive) | > 100 µM (inactive) | > 100 µM (inactive) | 20.3 µM (inactive) | 49.8 µM (inactive) | 32.9 µM (inactive) | 16 µM | 19.9 µM (inactive) | 14.3 µM (inactive) | 25.6 µM (inactive) | 42.9 µM (inactive) | 22.2 µM (inactive) | 58.2 µM (inactive) | 23.3 µM (inactive) | 27.6 µM (inactive) | 30.5 µM (inactive) | 23.8 µM (inactive) | 25.9 µM (inactive)
COC(=O)[C@]1(C)CCCn2c(=O)n(-c3ccccc3)c(=O)n21 | > 100 µM (inactive) | > 100 µM (inactive) | > 100 µM (inactive) | > 100 µM (inactive) | > 100 µM (inactive) | > 100 µM (inactive) | > 100 µM (inactive) | > 100 µM (inactive) | > 100 µM | > 100 µM (inactive) | > 100 µM (inactive) | > 100 µM (inactive) | > 100 µM (inactive) | > 100 µM (inactive) | > 100 µM (inactive) | > 100 µM (inactive) | > 100 µM (inactive) | > 100 µM (inactive) | > 100 µM (inactive) | > 100 µM (inactive)
CC(C)(C)OC(=O)NC(CSSCC(NC(=O)OC(C)(C)C)C(=O)O)C(=O)O (stereo not given) | > 100 µM (inactive) | > 100 µM (inactive) | > 100 µM (inactive) | > 100 µM (inactive) | > 100 µM (inactive) | > 100 µM (inactive) | > 100 µM (inactive) | > 100 µM (inactive) | > 100 µM | > 100 µM (inactive) | > 100 µM (inactive) | > 100 µM (inactive) | > 100 µM (inactive) | > 100 µM (inactive) | > 100 µM (inactive) | > 100 µM (inactive) | > 100 µM (inactive) | > 100 µM (inactive) | > 100 µM (inactive) | > 100 µM (inactive)
COc1cc2c(cc1OC)-c1c3c(cc4c1[C@@H](C2)N(C)CC4)OCO3 | 7.52 µM (inactive) | 4.69 µM (inactive) | 6.78 µM (inactive) | 9.64 µM (inactive) | 8.38 µM (inactive) | 11.4 µM (inactive) | 9.62 µM (inactive) | 6.14 µM (inactive) | 5.77 µM | 13.6 µM (inactive) | 8.04 µM (inactive) | 6.01 µM (inactive) | 10.9 µM (inactive) | 6.7 µM (inactive) | 1.94 µM (inactive) | 2.87 µM (inactive) | 4.59 µM (inactive) | 7.29 µM (inactive) | 8.26 µM (inactive) | 3.57 µM (inactive)
